We go through four compounds from PubChem BioAssay AID1963835 (Molecular Pharmacology Branch, DTP, NCI, 2024).

This assay concerns 699152-130-R-J1-PDC complex spheroid viability. Kind of assay: Anticancer human tumor 699152-130-R-J1-PDC patient-derived pancreatic carcinoma cell line growth inhibition [POLQ]. The conditions noted are these: for viability, T/C: stronger effect = lower value. As for the experimental part:
Multicellular complex tumor spheroid response to Polymerase (POL) inhibitors (novobiocin, ART-558, RP6685) in combination with a variety of drugs and investigational agents in selected tumor cell lines
The POL inhibitors (novobiocin, ART-558, and RP6685) were evaluated both individually and in combination with standard of care and investigational anticancer small molecules within a complex spheroid model of solid tumors. . Complex spheroids include a stromal component modeled by human endothelial cells (HUVEC) and fibroblasts modeled by human mesenchymal stem cells (MSCs). The concentration ranges selected for each drug and investigational agent were based upon clinically achievable concentrations if the clinical Cmax of the agent was known.
Compounds. The drugs and investigational agents: novobiocin (NSC847541), ART-558 (NSC835418), RP-6685 (NSC848927), peposertib (NSC802822), ceralasertib (NSC780249), elimusertib (NSC800525), camonsertib (NSC841442), AZD-1390 (NSC803789), olaparib (NSC753686), talazoparib (NSC767125), rucaparib (NSC756644), sotorasib (NSC818433), MRTX-1133 (NSC836407), SN-38 (NSC673596), topotecan (NSC609699), epotoside (NSC141540), doxorubicin (NSC123127), gemcitabine (NSC613327), 5-fluorouracil (NSC19893), paclitaxel (NSC125973), vemurafenib (NSC761431), MSA-2 (NSC828583), SN-011 (NSC837082), adavosertib (NSC754352), prexasertib (NSC758257), carboplatin (NSC241240) and oxaliplatin (NSC266046), were obtained from the National Cancer Institute (NCI) Developmental Therapeutics Program Chemical Repository (21). The FDA-approved anticancer drug set is available from the Developmental Therapeutics Program at https://dtp.cancer.gov/organization/dscb/obtaining/. […] The stock solutions were prepared in dimethyl sulfoxide (DMSO, Sigma-Aldrich, St. Louis, MO, cat. D2650), except for the platinum compounds which were prepared in saline (Quality Biological, Gaithersburg, MD, cat. 114-055-101), at 800-fold the tested concentration and stored at -70 degrees C prior to their use. All drugs and investigational agents were tested over a range starting from a high concentration at or near the clinical Cmax and decreasing in half-log increments. If the clinical Cmax for an agent had not been determined, the highest concentration tested was 10 microM, except for SN-38, which was tested at a high concentration of 1 microM.
Cell Culture. All cells were maintained in an incubator at 37 degrees C and 5% CO2 with 95% humidity. The PDC lines were cultured according to standard operating procedures established by the NCI PDMR (https://pdmr.cancer.gov). Table 3 of the manuscript, lists the cell lines along with the number of the three cell types plated to form the mct-spheroids and media for tumor cell growth. After thawing, all PDC lines, except 997537-175-T-J1-PDC and 415267-285-R-J2-PDC, were cultured in Matrigel-coated flasks prepared with a working solution of 1X Ham's F-12 nutrient mix, without supplementation (Thermo Fisher Scientific, cat. 11765054), 100 U/mL penicillin-streptomycin (Thermo Fisher Scientific, cat. 15140122), and 2.5% Matrigel (Corning Inc., Corning, NY, cat. 354248) for the first three passages. The two PDC lines 997537-175-T-J1-PDC and 415267-285-R-J2-PDC were cultured on uncoated flasks. The 857933-349-R-J2-PDC line was cultured in 6C/Colon 1B media containing advanced DMEM/F-12 (Thermo Fisher Scientific, cat. 12634028), 10 mM HEPES (Thermo Fisher Scientific, cat. 15630080), 1X GlutaMAX supplement (Thermo Fisher Scientific, cat. 35050061), 0.1 mg/mL primocin (InvivoGen, San Diego, CA, cat. ant-pm-2), 10% defined fetal bovine serum, heat inactivated (HyClone Laboratories Inc., Logan, UT, cat. SH30070.03HI), 50% L-WRN conditioned media (ATCC, cat. CRL-3276), 1.25 mM N-Acetyl-L-cysteine (Sigma-Aldrich, cat. A9165), 10 mM nicotinamide (Sigma-Aldrich, cat. N0636), 1X B-27 supplement (Thermo Fisher Scientific, cat. 17504044), 1X N-2 supplement (Thermo Fisher Scientific, cat. […]

The structures appear in SMILES notation. “And” between values parts separate entries of the source, which are not always exact repeats. Equal entries are not always repeated.
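Also: spheroids exposed to agents for 7 days before viability reading.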
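For viability, T/C in this document: percent of DMSO vehicle control viability so 100% = vehicle and 0% = no viable signal.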

The viability, T/C is the result in the treated group divided by that in the control group, in per cent. In general, IC50 refers to the concentration at which inhibition is half-maximal. As for `COc1cccc(OCCCN)c1-c1cc(Nc2cnc(C#N)cn2)n[nH]1`, the viability, T/C reads like this: (compound 0.00316 µM) 94% and 98.1% and 84.3%; (compound 0.01 µM) 84.5% and 83.7% and 91.9%; (compound 0.0316 µM) 66% and 60% and 74.3%; (compound 0.1 µM) 56.1% and 57.8% and 62.7%; (compound 0.316 µM) 55.3% and 56.8% and 60.6%; (compound 1 µM) 50.4% and 52.5% and 58.4%. Besides, the IC50 (curve of compound) was > 1000 nM.
Take `CCc1c2c(nc3ccc(O)cc13)-c1cc3c(c(=O)n1C2)COC(=O)[C@]3(O)CC`: the viability, T/C is, setting by setting: (compound 0.00316 µM) 79.8% and 73.5% and 71.1%; (compound 0.01 µM) 59.2% and 56% and 49.9%; (compound 0.0316 µM) 55.4% and 52.2% and 41.7%; (compound 0.1 µM) 45.9% and 44.3% and 37.6%; (compound 0.316 µM) 24.9% and 35.3% and 28.6%; (compound 1 µM) 7.27% and 9.92% and 8.91%. For the same compound, the IC50 (curve of compound) was 47.1 nM and 38.3 nM and 19.1 nM.
For `C#Cc1c(F)ccc2cc(O)cc(-c3ncc4c(N5CC6CCC(C5)N6)nc(OCC56CCCN5CC(F)C6)nc4c3F)c12` (stereo not drawn) + Nc1ccc(C#CCN(C(=O)Cc2ncc(C(F)(F)F)cc2C(F)(F)F)c2ccc(F)cc2)nn1, the half-maximal inhibitory concentration (IC50) was < 31.6 nM (curve of first compound, second compound 0.0316 µM); < 31.6 nM (curve of first compound, second compound 0.1 µM); < 31.6 nM (curve of first compound, second compound 0.316 µM); < 31.6 nM (curve of first compound, second compound 1 µM); < 31.6 nM (curve of first compound, second compound 3.16 µM); < 31.6 nM (curve of first compound, second compound 10 µM). For the same compound, the viability, T/C was 26% (second compound 0.0316 µM, first compound 0.0316 µM); 18.8% (second compound 0.0316 µM, first compound 0.1 µM); 14.6% (second compound 0.0316 µM, first compound 0.316 µM); 12.1% (second compound 0.0316 µM, first compound 1 µM); 14.2% (second compound 0.0316 µM, first compound 3.16 µM); 11.9% (second compound 0.0316 µM, first compound 10 µM). Besides, the viability, T/C is, setting by setting: (second compound 0.1 µM, first compound 0.0316 µM) 25.1%; (second compound 0.1 µM, first compound 0.1 µM) 21.8%; (second compound 0.1 µM, first compound 0.316 µM) 15.4%; (second compound 0.1 µM, first compound 1 µM) 13.7%; (second compound 0.1 µM, first compound 3.16 µM) 13.3%; (second compound 0.1 µM, first compound 10 µM) 13.2%. Further, the viability, T/C is 24% (second compound 0.316 µM, first compound 0.0316 µM); 16.3% (second compound 0.316 µM, first compound 0.1 µM); 18.9% (second compound 0.316 µM, first compound 0.316 µM); 12.3% (second compound 0.316 µM, first compound 1 µM); 12.4% (second compound 0.316 µM, first compound 3.16 µM); 12.1% (second compound 0.316 µM, first compound 10 µM). The viability, T/C (second compound 1 µM, first compound 0.0316 µM) was 18.8%; the viability, T/C (second compound 1 µM, first compound 0.1 µM) was 18.8%; the viability, T/C (second compound 1 µM, first compound 0.316 µM) was 13.5%; the viability, T/C (second compound 1 µM, first compound 1 µM) was 12.8%; the viability, T/C (second compound 1 µM, first compound 3.16 µM) was 12.8%; the viability, T/C (second compound 1 µM, first compound 10 µM) was 12.4%. Besides, the viability, T/C (second compound 3.16 µM, first compound 0.0316 µM) is 21.6%; the viability, T/C (second compound 3.16 µM, first compound 0.1 µM) was 16.9%; the viability, T/C (second compound 3.16 µM, first compound 0.316 µM) is 13%; the viability, T/C (second compound 3.16 µM, first compound 1 µM) was 13.3%; the viability, T/C (second compound 3.16 µM, first compound 3.16 µM) is 11.8%; the viability, T/C (second compound 3.16 µM, first compound 10 µM) was 14.2%. Further, the viability, T/C was 32.2% (second compound 10 µM, first compound 0.0316 µM); 18.8% (second compound 10 µM, first compound 0.1 µM); 14.3% (second compound 10 µM, first compound 0.316 µM); 14.6% (second compound 10 µM, first compound 1 µM); 13.5% (second compound 10 µM, first compound 3.16 µM); 11.5% (second compound 10 µM, first compound 10 µM).
For `CC(=O)O[C@H]1C(=O)[C@@]2(C)[C@H]([C@H](OC(=O)c3ccccc3)[C@]3(O)C[C@H](OC(=O)[C@H](O)[C@@H](NC(=O)c4ccccc4)c4ccccc4)C(C)=C1C3(C)C)[C@]1(OC(C)=O)CO[C@@H]1C[C@@H]2O`, the viability, T/C (compound 0.00949 µM) was 71.7% and 80.5% and 82.2%; the viability, T/C (compound 0.03 µM) was 56% and 69.6% and 61.2%; the viability, T/C (compound 0.0949 µM) was 54.2% and 56.2% and 58.5%; the viability, T/C (compound 0.3 µM) was 62% and 62.2% and 59.9%; the viability, T/C (compound 0.949 µM) is 66.9% and 69% and 60%; the viability, T/C (compound 3 µM) was 70.2% and 72.3% and 64.6%. Besides, under “curve of compound”, the IC50 is > 3000 nM.
